Measured values published in patent publication US10131652B2, “Pyrimidinyloxy benzene derivatives as herbicides” (E. I. DU PONT DE NEMOURS AND COMPANY, priority 2014, dated 2018).
Read-outs that look alike come from different tables or passages of the source.

Legend:
Assay in all cases: Test F pre-/postemergence plant response
Format in all cases: in vivo
[1] = system: arrowleaf sida (Sida rhombifolia); conditions: Sida rhombifolia, scale 0 to 100, read-out: Plant response rating, Arrowleaf Sida
Summary of the method: (§1)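 Visual rating versus untreated controls, 0–100 scale (0 = no effect, 100 = complete control), taken 14–21 d after treatment in greenhouse. Pre: seeds planted in silt loam, soil treated. Post: plants 2–18 cm, 1–4 leaves. Compound formulated in non-phytotoxic solvent plus surfactant.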

corn (Zea mays) = conditions: Zea mays, scale 0 to 100
Summary of the method: as §1

[2] = system: fall panicum (Panicum dichotomiflorum); conditions: Panicum dichotomiflorum, scale 0 to 100, read-out: Plant response rating, Panicum, Fall
Summary of the method: as §1

[3] = system: field bindweed (Convolvulus arvensis); conditions: Convolvulus arvensis, scale 0 to 100, read-out: Plant response rating, Field Bindweed
Summary of the method: as §1

[4] = system: giant foxtail (Setaria faberii); conditions: Setaria faberi, pre-emergence, scale 0 to 100, read-out: Plant response rating, Foxtail, Giant
Summary of the method: as §1

[5] = system: goosegrass (Eleusine indica); conditions: Eleusine indica, pre-emergence, scale 0 to 100, read-out: Plant response rating, Goosegrass
Summary of the method: as §1

kochia (Kochia scoparia) = conditions: Bassia scoparia, scale 0 to 100, read-out: Plant response rating, Kochia; for pest or weed control at 16 g/ha: 16 g ai/ha; for pest or weed control at 31 g/ha: 31 g ai/ha; for pest or weed control at 125 g/ha: 125 g ai/ha
Summary of the method: as §1

[6] = system: palmer pigweed (Amaranthus palmeri); conditions: Amaranthus palmeri, scale 0 to 100, read-out: Plant response rating, Pigweed, Palmer
Summary of the method: as §1

soybean (Glycine max) = conditions: Glycine max, scale 0 to 100, read-out: Plant response rating, Soybean
Summary of the method: as §1

[7] = system: surinam grass (Brachiaria decumbens); conditions: Urochloa decumbens, pre-emergence, scale 0 to 100, read-out: Plant response rating, Surinam Grass
Summary of the method: as §1

[8] = system: velvetleaf (Abutilon theophrasti); conditions: Abutilon theophrasti, pre-emergence, scale 0 to 100, read-out: Plant response rating, Velvetleaf
Summary of the method: as §1

[9] = post-emergence, 16 g ai/ha Postemergence
[10] = post-emergence, 31 g ai/ha Postemergence
[11] = post-emergence, 62 g ai/ha Postemergence
[12] = post-emergence, 125 g ai/ha Postemergence
[13] = pre-emergence, 16 g ai/ha Preemergence
[14] = pre-emergence, 31 g ai/ha Preemergence
[15] = pre-emergence, 62 g ai/ha Preemergence
[16] = pre-emergence, 125 g ai/ha Preemergence

Fc1cccc(Oc2ncc(Br)cn2)c1-c1cc(C(F)F)no1 [Compound 145, 5-bromo-2-[2-[3-(difluoromethyl)-5-isoxazolyl]-3-fluorophenoxy]pyrimidine]
pest or weed control at 16 g/ha [1, 9]: 95%
pest or weed control at 31 g/ha [1, 10]: 95%
pest or weed control at 62 g/ha [1, 11]: 98%
pest or weed control at 125 g/ha [1, 12]: 95%
pest or weed control at 16 g/ha [1, 13]: 65%
pest or weed control at 31 g/ha [1, 14]: 90%
pest or weed control at 62 g/ha [1, 15]: 98%
pest or weed control at 125 g/ha [1, 16]: 98%
Corn plant response rating (crop injury, 0 = no effect, 100 = complete kill) at 16 g/ha (corn (Zea mays); [9]): 5%
Corn plant response rating (crop injury, 0 = no effect, 100 = complete kill) at 31 g/ha (corn (Zea mays); [10]): 10%
Corn plant response rating (crop injury, 0 = no effect, 100 = complete kill) at 62 g/ha (corn (Zea mays); [11]): 20%
Corn plant response rating (crop injury, 0 = no effect, 100 = complete kill) at 125 g/ha (corn (Zea mays); [12]): 20%
Corn plant response rating (crop injury, 0 = no effect, 100 = complete kill) at 16 g/ha (corn (Zea mays); [13]): 0%
Corn plant response rating (crop injury, 0 = no effect, 100 = complete kill) at 31 g/ha (corn (Zea mays); [14]): 0%
Corn plant response rating (crop injury, 0 = no effect, 100 = complete kill) at 62 g/ha (corn (Zea mays); [15]): 40%
Corn plant response rating (crop injury, 0 = no effect, 100 = complete kill) at 125 g/ha (corn (Zea mays); [16]): 60%
pest or weed control at 16 g/ha [2, 9]: 10%
pest or weed control at 31 g/ha [2, 10]: 10%
pest or weed control at 62 g/ha [2, 11]: 50%
pest or weed control at 125 g/ha [2, 12]: 80%
pest or weed control at 16 g/ha [2, 13]: 65%
pest or weed control at 31 g/ha [2, 14]: 80%
pest or weed control at 125 g/ha [2, 16]: 100%
pest or weed control at 62 g/ha ([2]; pre-emergence, Preemergence): 95%
pest or weed control at 16 g/ha [3, 9]: 70%
pest or weed control at 31 g/ha [3, 10]: 75%
pest or weed control at 62 g/ha [3, 11]: 80%
pest or weed control at 125 g/ha [3, 12]: 90%
pest or weed control at 16 g/ha [3, 13]: 0%
pest or weed control at 31 g/ha [3, 14]: 50%
pest or weed control at 62 g/ha [3, 15]: 65%
pest or weed control at 125 g/ha [3, 16]: 95%
pest or weed control at 16 g/ha ([4]; 16 g ai/ha Preemergence): 0%
pest or weed control at 31 g/ha ([4]; 31 g ai/ha Preemergence): 65%
pest or weed control at 62 g/ha ([4]; 62 g ai/ha Preemergence): 85%
pest or weed control at 125 g/ha ([4]; 125 g ai/ha Preemergence): 100%
pest or weed control at 16 g/ha ([5]; 16 g ai/ha Preemergence): 0%
pest or weed control at 31 g/ha ([5]; 31 g ai/ha Preemergence): 70%
pest or weed control at 125 g/ha ([5]; 125 g ai/ha Preemergence): 95%
pest or weed control at 62 g/ha ([5]; Preemergence): 80%
pest or weed control at 16 g/ha (kochia (Kochia scoparia); post-emergence, Postemergence): 98%
pest or weed control at 31 g/ha (kochia (Kochia scoparia); post-emergence, Postemergence): 100%
pest or weed control at 62 g/ha (kochia (Kochia scoparia); post-emergence, 62 g ai/ha, Postemergence): 95%
pest or weed control at 125 g/ha (kochia (Kochia scoparia); post-emergence, Postemergence): 100%
pest or weed control at 16 g/ha (kochia (Kochia scoparia); pre-emergence, Preemergence): 75%
pest or weed control at 31 g/ha (kochia (Kochia scoparia); pre-emergence, Preemergence): 98%
pest or weed control at 125 g/ha (kochia (Kochia scoparia); pre-emergence, Preemergence): 100%
pest or weed control at 62 g/ha (kochia (Kochia scoparia); pre-emergence, Preemergence): 100%
pest or weed control at 16 g/ha [6, 9]: 95%
pest or weed control at 31 g/ha [6, 10]: 100%
pest or weed control at 62 g/ha [6, 11]: 100%
pest or weed control at 125 g/ha [6, 12]: 100%
pest or weed control at 16 g/ha [6, 13]: 100%
pest or weed control at 31 g/ha [6, 14]: 100%
pest or weed control at 125 g/ha [6, 16]: 100%
pest or weed control at 62 g/ha ([6]; pre-emergence, Preemergence): 100%
plant injury at 16 g/ha (soybean (Glycine max); [9]): 95%
plant injury at 31 g/ha (soybean (Glycine max); [10]): 95%
plant injury at 62 g/ha (soybean (Glycine max); [11]): 95%
plant injury at 125 g/ha (soybean (Glycine max); [12]): 95%
plant injury at 16 g/ha (soybean (Glycine max); [13]): 0%
plant injury at 31 g/ha (soybean (Glycine max); [14]): 0%
plant injury at 125 g/ha (soybean (Glycine max); [16]): 40%
plant injury at 62 g/ha (soybean (Glycine max); pre-emergence, Preemergence): 15%
pest or weed control at 16 g/ha ([7]; 16 g ai/ha Preemergence): 0%
pest or weed control at 31 g/ha ([7]; 31 g ai/ha Preemergence): 0%
pest or weed control at 125 g/ha ([7]; 125 g ai/ha Preemergence): 25%
pest or weed control at 62 g/ha ([7]; Preemergence): 0%
pest or weed control at 16 g/ha ([8]; 16 g ai/ha Preemergence): 35%
pest or weed control at 31 g/ha ([8]; 31 g ai/ha Preemergence): 98%
pest or weed control at 125 g/ha ([8]; 125 g ai/ha Preemergence): 100%
pest or weed control at 62 g/ha ([8]; Preemergence): 100%
